In patent US20230181602A1, “TREATMENT OF NON-ALCOHOLIC STEATOHEPATITIS (NASH)” (DURECT CORPORATION, priority 2020, published 2023):

Experiments:
[1] = Metabolite profiling of plasma and feces after oral dose in rats; format: in vivo; conditions: 75 mg/kg oral
Procedure: Radiolabeled components in plasma and feces extracts were profiled and identified using radio-high performance liquid chromatography (HPLC) and high performance liquid chromatography/mass spectrometry (HPLC/MS) methods.
Plasma pools were prepared for Group 1 (75 mg/kg, [^14C]-25HC3S) samples collected at 2, 4, and 6 hours post-dose. […] One metabolite M29 was identified as 25-hydroxycholesterol with 37% ROI and a concentration of 1233 ng-equiv./g.
Feces pools were prepared for Group 2 (75 mg/kg, [^14C]-25HC3S) samples collected from 0 to 24, 24 to 48, 48 to 72, 72 to 96, 96 to 120, 120 to 144, and 144 to 168 hours post-dose. A total of eleven metabolites were identified. None of the metabolites were present at ≥5% of dose. Metabolites present at 2-5% of dose were M1 (4.5% of total dose and 1%-69% ROI), M3 (4.6% of total dose and 1%-44% ROI), M4 (2.0% of total dose and 0%-10% ROI), M8 (3.1% of total dose and 1%-46% ROI), […], and M30 (3.3% of total dose and 0%-5% ROI).

[2] = Plasma pharmacokinetics of radioactivity after single intravenous dose in rats; format: in vivo, Sprague Dawley rats; conditions: 10 mg/kg single intravenous (bolus) dose
From the text: (§1) The objectives of this study were to determine the plasma pharmacokinetics of [4-^14C]-25HC3S-derived radioactivity in male Sprague Dawley rats, determine the routes of elimination and excretion mass balance of [4-^14C]-25HC3 S-derived radioactivity in male Sprague Dawley rats, determine the tissue distribution and tissue pharmacokinetics of [4-^14C]-25HC3S-derived radioactivity using quantitative whole body autoradiography methods in male Sprague Dawley and Long Evans rats following a single intravenous (bolus) dose, and to provide plasma, urine, and fecal homogenate samples for metabolite profiling of [4-^14C]-25HC3 S-derived radioactivity.
(§2) Nine male Sprague Dawley rats (Group 1) were designated for the pharmacokinetic phase, 3 male Sprague Dawley rats (Group 2) for the excretion mass balance phase, and 7 male Sprague Dawley rats (Group 3) and 9 male Long Evans rats (Group 4) for the tissue distribution phase. All animals received a single intravenous dose of [^14C]-25HC3S at 10 mg/kg and a target radioactivity of 225 μCi/kg. Blood samples were collected from all Group 1 animals at approximately 0.083, 0.25, 0.5, 1, 2, 4, 8, 12, 24, 48, and 72 hours post-dose. Urine and feces were collected from all Group 2 animals periodically through 168 hours post-dose. […] Following blood collection, animals were euthanized by CO2 inhalation and carcasses frozen in a dry ice/hexane bath for processing by quantitative whole body autoradiography. Whole blood, plasma, urine, feces, cage rinse, and cage wash were analyzed for total radioactivity by liquid scintillation counting.

[3] = Tissue distribution by quantitative whole body autoradiography after single oral (gavage) dose; format: in vivo, Sprague Dawley rats; conditions: 75 mg/kg oral
[4] = Excretion after single oral (gavage) dose in rats; format: in vivo; conditions: 75 mg/kg single oral (gavage) dose
[5] = Plasma pharmacokinetics after single oral (gavage) dose in rats; format: in vivo; conditions: 75 mg/kg single oral (gavage) dose
Procedure: The terminal elimination phase T1/2 was 27.3 hours.

[6] = Tissue distribution by quantitative whole body autoradiography after single intravenous dose; format: in vivo, Sprague Dawley rats; conditions: 10 mg/kg intravenous
From the text: as §1, §2

[7] = Single dose safety and pharmacokinetic study in subjects with NASH and control healthy subjects; format: in vivo, human
Procedure: The present Example was a randomized, dose ranging, single dose safety and pharmacokinetic study of 25HC3S administered to subjects with NASH and control healthy subjects. […] For each cohort, 10 subjects with NASH were enrolled which were further classified into cirrhotic and non-cirrhotic. Each subject received only one dose of study treatment. The second cohort was dosed after a review of safety and tolerability data from Cohort 1.

Compound: desmosterol sulfate
- presence in plasma or feces samples [1]: not found

Compound: C[C@H](CCCC(C)(C)O)[C@H]1CC[C@H]2[C@@H]3CC=C4[14CH2][C@@H](OS(=O)(=O)O)CC[C@]4(C)[C@H]3CC[C@]12C [[4-^14C]-25HC3S]
- mean plasma C0 (radioactivity) [2]: 25,900 ng-equiv./g
- plasma AUClast (radioactivity) [2]: 27,900 h*ng-equiv./g
- terminal elimination phase T1/2, plasma [2]: 26.6 h
- plasma:whole blood AUClast ratio [3]: 1.12
- skin, thymus, prostate, and pituitary tissue concentrations [3]: < 3000 ng equiv./g
- tissue Tmax [3]: ≤ 6 h
- tissue concentrations by 168 hours post-dose [3]: near or below the quantitation limit in all tissues except adrenal gland and liver
- tissue distribution of drug and/or its metabolites [3]: broadly distributed and detected by quantitative whole body autoradiography in all tissues except the eye (lens)
- tissue:plasma ratio (AUClast), adrenal gland [3]: 6.64
- tissue:plasma ratio (AUClast), liver [3]: 6.96
- tissue:plasma ratio (AUClast), small intestine (wall) [3]: 15.4
- uveal tract and brain concentrations [3]: approximately 1000 ng equiv./g
- whole blood AUClast [3]: 127,000 h·ng equiv./g
- dose recovered in urine, feces, and cage rinse [4]: approximately 94.5%
- recovered radioactivity in feces [4]: 94.2%
- plasma AUClast (radioactivity) [5]: 96,400 h·ng equiv./g
- terminal elimination phase T1/2 [5]: 27.3 h
- AUClast in liver [6]: ≤ 364,000 h·ng/g
- concentrations in thymus, bone (femur), uveal tract, fat, testes, and brain (approximate) [6]: around 1500 ng-equiv./g
- concentrations in thymus, bone (femur), uveal tract, fat, testes, and brain (bound) [6]: < 5000 ng-equiv./g
- tissue concentrations by 168 hours postdose [6]: below quantitation limit in all tissues except adrenal gland, harderian gland, liver, and small intestine
- tissue:plasma ratio (AUClast), liver [6]: 11.4
- tissue:plasma ratio (AUClast), small intestine (wall) [6]: 7.44
- tissue distribution of drug and/or its metabolites ([6]; Group 3): broadly distributed and detected by quantitative whole body autoradiography in all tissues except the eye (lens)

Compound: C[C@H](CCCC(C)(C)O)[C@H]1CC[C@H]2[C@@H]3CC=C4C[C@@H](OS(=O)(=O)[O-])CC[C@]4(C)[C@H]3CC[C@]12C.[Na+] [25HC3S sodium]
- difference between healthy and NASH subjects in pharmacokinetics (Cmax and AUC) ([7]; 50 mg and 200 mg): no clear difference
- increase of geometric mean Cmax in NASH subjects over healthy subjects ([7]; Cohorts 1 and 2): 18-24%
- increasing trends in exposure (AUC parameters) in NASH subjects ([7]; NASH versus healthy subjects): up to 31%
